Assay results published in US20120251496A1, “EZATIOSTAT FOR TREATING MULTIPLE MYELOMA” (Telik, Inc., priority 2011, published 2012).

Assays:
[1] = tested on: relapsed/refractory myeloma patients; settings: thalidomide alone; cited from earlier work
RPMI-8226 = assay: multiple myeloma cell proliferation, RPMI-8226; assay type: cell-based; settings: RPMI-8226, Human multiple myeloma
Excerpt: (§1) The effect that ezatiostat has on multiple myeloma proliferation is tabulated below (Table 1).

[2] = tested on: human RPMI8226 multiple myeloma cell; assay: combination with melphalan, inhibition of multiple myeloma cell proliferation; assay type: cell-based; settings: added together with melphalan; RPMI8226 cells; FIG. 1
ARH77 = assay: multiple myeloma cell proliferation, ARH77; assay type: cell-based; settings: ARH-77, ARH77, Human multiple myeloma
Excerpt: as §1

U266B1 = assay: multiple myeloma cell proliferation, U266B1; assay type: cell-based; settings: U266B1, Human multiple myeloma
Excerpt: as §1

O=C1CCC(N2C(=O)c3ccccc3C2=O)C(=O)N1 (centres unmarked) [Thalidomide, thalidomide]
partial response rates [1]: about 30 % of patients

CCOC(=O)[C@@H](N)CCC(=O)N[C@@H](CSCc1ccccc1)C(=O)N[C@@H](C(=O)OCC)c1ccccc1 [ezatiostat]
IC50 (RPMI-8226): 33000 nM
synergy with melphalan in inhibiting cell proliferation [2]: demonstrated synergy with melphalan
IC50 (ARH77): 2230 nM
IC50 (U266B1): 860 nM
